Results taken from US20250163057A1, “DCN-1 MODULATING COMPOUNDS AND METHODS OF USE THEREOF” (Cellarity, Inc., priority 2023, published 2025).

Assays:
Assay type in all cases: binding
[1] = molecular target: DCN1 protein (Homo sapiens (Human), UniProt Q96GG9); assay: Intact Protein MS Analysis with the RapidFire-TOF System (covalent adduct formation); settings: MS Emax; 400 nM DCN1, 3 hours at room temperature
Procedure, shortened: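 Tag-cleaved human DCN1 (400 nM) expressed in E. coli, in 25 mM Tris-HCl, 200 mM NaCl, 1 mM DTT, was incubated with 11 compound concentrations for 3 h at room temperature and quenched with 0.2% formic acid. Intact-protein Q-TOF MS with deconvolution detected the compound adduct mass.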

[2] = molecular target: DCN1 (DCUND1) protein PONY domain (Homo sapiens (Human), UniProt Q96GG9); assay: Off-rate measurement of reversible covalent molecules (jump dilution TR-FRET with Cy5 probe); settings: for Category: binding mode category from off-rate assay; for residence time: inverse of rate constant K; for residence time / half-life: jump dilution TR-FRET; for koff: jump dilution, Cy5 covalent probe 150 nM, TR-FRET; for half-life: ln(2)/K
[3] = molecular target: DCN2 (DCUND2) protein PONY domain (Homo sapiens (Human), UniProt Q6PH85); assay: Measurement of Kinact/KI in the DCN2 TR-FRET Assay; settings: for kinact/KI: read-out: Kinact/KI (converted); for Ki / kinact: time-dependent IC50 over 24 hrs; for kinact: read-out: Kinact (converted)
Protocol: A TR-FRET Assay was performed to evaluate the ability of the compounds to bind DCN-2.
The time resolved—Forster's resonance energy transfer (TR-FRET) assay was designed following the protocol established in (Scott et al., Nat Chem Biol. 2017 August; 13(8): 850-857). A recombinant form of the DCN2 (DCUND2) protein PONY domain was produced using an E. coli expression system at Viva Biotech China. The DCN2 protein was biotinylated (EZ sulfo-NHS-LC-biotin; Thermofisher) for labeling with 2.5 nM streptavidin terbium (Tb) cryptate in the reaction. The probe was changed to a non-covalent DCN1 inhibitor labeled with carboxyfluorescein (FAM; Zhou et al, Nat Commun. 2017; 8: 1150). Buffer conditions were modified to enhance protein stability by replacing TritonX with 0.05% Tween20 and increasing NaCl to 200 mM. The compounds were screened against 0.31 nM DCN1 and 40 nM FAM-labeled probe in a 40 ul reaction volume. The TR-FRET ratio between Tb-DCN1 and the FAM-labeled probe was measured in a 384-well opti-plate (Perkin Elmer) using a plate reader (BMG) at after treatment with compound (final DMSO concentration of 0.1%). The ratio was normalized to the high (DCN1 and FAM-probe) and low (DCN1 and no probe) controls for a readout of % activity (=100*(x−low)/(high−low)).
The Kinact and KI measurements were taken to allow for continuous reads over 24 hrs. Plates were read every 5 min up to 1 hr, every 15 min up to 5 hr, and every hour up to […]. Kinact and KI were calculated based on the following equations (Krippendorff B F, et al. Mechanism-based inhibition: deriving K(I) and k(inact) directly from time-dependent IC(50) values. J BiomolScreen. 2009; Mons E et al. A Comprehensive Guide for Assessing Covalent Inhibition in Enzymatic Assays Illustrated with Kinetic Simulations. CurrProtoc. 2022) where the KM of the probe against DCN2 is 21.62 nM. The Kinact and KI values could be estimated from the tight curves of the IC50 values over time.

DCN2 (DCUND2) protein PONY domain, sequence (Q6PH85 60-248): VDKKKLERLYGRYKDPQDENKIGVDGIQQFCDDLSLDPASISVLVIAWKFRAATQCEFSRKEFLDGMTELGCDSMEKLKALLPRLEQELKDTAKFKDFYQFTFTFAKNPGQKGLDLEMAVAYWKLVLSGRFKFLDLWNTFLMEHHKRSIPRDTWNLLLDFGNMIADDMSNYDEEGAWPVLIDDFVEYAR
DCN1 protein, sequence (Q96GG9 whole entry): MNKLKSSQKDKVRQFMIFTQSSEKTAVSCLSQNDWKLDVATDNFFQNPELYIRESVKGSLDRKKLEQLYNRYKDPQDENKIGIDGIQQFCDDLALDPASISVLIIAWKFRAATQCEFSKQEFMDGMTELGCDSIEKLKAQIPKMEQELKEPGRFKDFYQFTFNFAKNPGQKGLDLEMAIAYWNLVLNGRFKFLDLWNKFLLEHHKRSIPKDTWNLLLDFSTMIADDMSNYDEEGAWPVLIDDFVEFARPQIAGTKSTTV
DCN1 (DCUND1) protein PONY domain, sequence (Q96GG9 60-248): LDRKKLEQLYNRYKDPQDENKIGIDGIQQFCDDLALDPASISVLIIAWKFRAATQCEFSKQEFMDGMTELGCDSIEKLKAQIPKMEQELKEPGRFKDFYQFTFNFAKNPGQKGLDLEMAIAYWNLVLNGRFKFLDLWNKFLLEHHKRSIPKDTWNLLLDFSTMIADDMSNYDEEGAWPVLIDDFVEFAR

Compound | % Adduct Formation [1] | Category [2] | kinact/KI [3] | Ki [3] | kinact [3] | residence time [2] | koff [2] | half-life [2]
CCN1C(=O)[C@@H](NC(=O)c2cccc(C(F)(F)F)c2)[C@@H](C2CC2)c2c(C(=O)N3CCNC[C@H]3C#N)nn(-c3ccccc3)c21 [Compound I-383] | +++ (MS Emax % adduct formation greater than 80.0 and less than or equal to 100.0) | irreversible covalent | 48300 M⁻¹ s⁻¹ | 95.8 nM | 0.00465 s⁻¹ |  |  | 
CCN1C(=O)[C@@H](NC(=O)c2cccc(C(F)(F)F)c2)[C@@H](c2ccc(F)cc2)c2c(C(=O)N(C)[C@H](C#N)CCN(C)C)nn(C3CCOCC3)c21 [Compound I-370] | +++ (MS Emax % adduct formation greater than 80.0 and less than or equal to 100.0) | fast reversible | 107000 M⁻¹ s⁻¹ | 0.488 nM | 5.17e-05 s⁻¹ | 78.6 min | 0.000212 s⁻¹ | 0.908 h
CCN1C(=O)[C@@H](NC(=O)c2cccc(C(F)(F)F)c2)[C@@H](C)c2c(C(=O)N3[C@H](C#N)C[C@H]4C[C@H]43)nn(C3CCOCC3)c21 [Compound I-387] | +++ (MS Emax % adduct formation greater than 80.0 and less than or equal to 100.0) | reversible covalent | 46700 M⁻¹ s⁻¹ | 157 nM | 0.00727 s⁻¹ | 144 min | 0.000116 s⁻¹ | 1.67 h
